Molecules are shown by their SMILES. The source made the active and inactive calls. The rule behind the calls is not given here. Where only a bound is given, the exact number is not on record here.

In this assay the target is Peptidyl-prolyl cis-trans isomerase FKBP1A (Homo sapiens) (UniProt P62942). Description: small-molecule binding to FKBP12 – biophysical, NMR detection (AID 608). The conditions noted are these: purified FKBP12.
Sequence of Peptidyl-prolyl cis-trans isomerase FKBP1A (Homo sapiens) (P62942 whole entry, looked up): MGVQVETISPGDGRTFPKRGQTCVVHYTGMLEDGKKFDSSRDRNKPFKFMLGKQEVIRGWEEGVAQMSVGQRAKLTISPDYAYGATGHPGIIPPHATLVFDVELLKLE
For `Nc1cc(F)cc(F)c1`, the Kd was > 4 mM (inactive).
The same measure for `NN1C(=O)CSC1=Nc1ccccc1`: > 4 mM (inactive); for `Cc1cccc(OCc2nnc(N)s2)c1`: > 4 mM (inactive).
As for `Nc1nc2ccc(N3CCOCC3)cc2s1`, the Kd is > 4 mM (inactive).
As for `COCC(=O)NC1CC(C)(C)NC(C)(C)C1`, the figure is > 4 mM (inactive).
The same measure for `Cc1noc(C)c1C(=O)NCc1cccs1`: > 4 mM (inactive); for `COc1cc2c(cc1NS(=O)(=O)N1CCCCC1)oc1ccccc12`: > 4 mM (inactive).
As for `NC(=NCCC[C@H](N)C(=O)O)NC(CCC(=O)O)C(=O)O` (stereo partly drawn), the Kd was > 4 mM (inactive).
The same measure for `CCCCCCCCCCCC1=C(O)C(=O)C=C(O)C1=O`: > 4 mM (inactive); for `CCCCCCCCCCCCCc1ccco1`: > 4 mM (inactive); for `COCC(=O)Nc1ccc(C)c(Cl)c1`: > 4 mM (inactive).
The same measure for `CCc1noc(C)c1C(=O)Nc1ncc(C)s1`: > 4 mM (inactive); for `O=C(O)/C=C/c1ccc(O)c(O)c1`: > 4 mM (inactive); for `Cc1c(C(=O)Nc2ccccc2)sc(N)c1C(N)=O`: > 4 mM (inactive).
As for `Cc1cc(C)c(C(N)=O)c(=S)[nH]1`, the figure is > 4 mM (inactive).
As to `CCCc1ncc(C(O)c2cccc3ccccc23)n1C` (stereo not drawn), the Kd was > 4 mM (inactive).
As for `Cc1cc(=O)[nH]c(NCc2cccnc2)n1`, the figure is > 4 mM (inactive); as for `O=C(Nn1cnnc1)c1cc2c(s1)CCCC2`, > 4 mM (inactive); as for `Cc1nc2ccccc2c(=O)n1/N=C/c1ccco1`, > 4 mM (inactive).
As for `C[C@@H]1CCC2[C@](C)(CO)[C@@H](O)CC[C@]2(C)[C@@]12CC[C@@](CO)(CCO)O2` (stereo partly drawn), the figure is > 4 mM (inactive); as for `CCOC(=O)CC1Sc2ccccc2NC1=O` (stereo not drawn), > 4 mM (inactive); as for `COc1cc2nc(-c3cccs3)oc(=O)c2cc1OC`, > 4 mM (inactive).
As for `O=[N+]([O-])c1ccc2c(c1)N([O-])C1(CCCCC1)[N+]2=O`, the figure is > 4 mM (inactive); as for `O=C(c1cccc(C(F)(F)F)c1)N1CCCC1`, > 4 mM (inactive).
Turning to `Cc1cc(N2C(=O)CCC2=O)n(-c2ccccc2)n1`, the Kd is > 4 mM (inactive).
The same measure for `CCOC(=O)c1cc(C)n(-n2cnnc2)c1C`: > 4 mM (inactive); for `CON(C)C(=O)Nc1ccc(Cl)cc1`: > 4 mM (inactive).
The same measure for `NCc1ccc(N2CCOCC2)cc1`: > 4 mM (inactive); for `Oc1ccc(-n2cncn2)cc1`: > 4 mM (inactive); for `S=C(c1cccnc1)N1CCOCC1`: > 4 mM (inactive).
The same measure for `COc1ccc(C2(C)NC(=O)NC2=O)cc1` (stereo not drawn): > 4 mM (inactive).
Regarding `Nc1ncnc(Nc2ccccc2C(F)(F)F)n1`, the Kd is > 4 mM (inactive).
The same measure for `CC1(C)Cc2cccc(CO)c2O1`: > 4 mM (inactive).
Consider `Nc1c(Nc2ccccc2)c2ccccc2oc1=O`, for which the Kd was > 4 mM (inactive).
The same measure for `COc1ccc(-c2nnc(-c3ccc(N)cc3)o2)cc1`: > 4 mM (inactive); for `Cc1ccc(SCC(=O)N2CC(C)OC(C)C2)cc1` (stereo not drawn): “inactive”.
With `CCOC(=O)CSc1nnc(C)c(=O)[nH]1`, the Kd is > 4 mM (inactive).
For `O=C(Cc1cccs1)N1CCOCC1`, the Kd was > 4 mM (inactive).
As for `Cc1nnc(SCc2cccs2)[nH]c1=O`, the figure is > 4 mM (inactive); as for `COc1ccc(-c2oc3cc(O[C@H]4O[C@H](CO)[C@@H](O)[C@H](O)[C@H]4O)c(OC)c(O)c3c(=O)c2OC)cc1O`, > 4 mM (inactive).
The same measure for `Cc1noc(C)c1C(=O)NCc1ccco1`: > 4 mM (inactive).
Turning to `CCOC(=O)c1cnn2ccccc12`, the Kd was > 4 mM (inactive).
As for `CC(C)C(=O)NCC(c1ccco1)N1CCOCC1` (stereo not drawn), the figure is > 4 mM (inactive); as for `NCc1csc2ccccc12`, > 4 mM (inactive); as for `CSc1nsc(SCc2cnc(C)nc2N)n1`, > 4 mM (inactive).
As for `COc1ccc(C)cc1S(=O)(=O)N1CCCCC1`, the figure is > 4 mM (inactive); as for `CC1CC[C@@]2(OC1)O[C@H]1CC3C4CC[C@@H]5C[C@@H](O)CC[C@]5(C)C4CC[C@]3(C)[C@H]1[C@@H]2C` (stereo partly drawn), > 4 mM (inactive).
The same measure for `O=c1c(O)c(-c2ccc(O)c(O)c2)oc2cc(O)ccc12`: > 4 mM (inactive); for `COc1ccc2c(c1)CCCN2C(N)=O`: > 4 mM (inactive).
With `CC1(C)CC[C@]2(C(=O)O)CC[C@]3(C)C(=CCC4[C@@]5(C)CC[C@H](O)[C@@](C)(CO)C5CC[C@]43C)C2C1` (stereo partly drawn), the Kd is > 4 mM (inactive).
As for `COCc1cc(=O)oc2cc(N)ccc12`, the Kd was > 4 mM (inactive).
The same measure for `Cc1nnc(-n2cnc3ccccc32)c2ccccc12`: > 4 mM (inactive); for `Cc1c(-c2ccc(F)cc2)[n+](=O)c2c(n1[O-])CCC2`: > 4 mM (inactive).
As for `CC(=O)Nc1ccc2c(c1)CCCC2=O`, the figure is > 4 mM (inactive); as for `Cc1cc(S(=O)(=O)N2CCCC2)ccc1OCC(=O)N1CCOCC1`, “inactive”.
As for `OC[C@H]1O[C@@H](Oc2ccc(O)cc2)[C@H](O)[C@@H](O)[C@@H]1O`, the figure is > 4 mM (inactive); as for `Cn1ccnc1C(O)c1ccccc1` (stereo not drawn), > 4 mM (inactive); as for `c1cncc(C2CCCCN2)c1` (stereo not drawn), > 4 mM (inactive).
`CN1C2CC3C[C@H]1C(O3)C2O` (stereo partly drawn): the Kd is > 4 mM (inactive).
In the case of `CCCc1cc(=O)[nH]c2nnc(SCC(C)=O)n12`, the Kd was > 4 mM (inactive).
As for `CS(=O)(=O)c1ccc(N)cc1`, the figure is > 4 mM (inactive); as for `Nc1c(S(=O)(=O)c2ccccc2)csc1C(=O)O`, > 4 mM (inactive).
As for `COc1cc([C@@H]2c3cc4c(cc3[C@H](OC(C)=O)[C@H]3COC(=O)[C@H]23)OCO4)cc(OC)c1OC`, the figure is > 4 mM (inactive); as for `Cn1c(=O)n(C)c2nc([N+](=O)[O-])c(Cl)cc21`, > 4 mM (inactive).
As for `Cc1cc(NC(=O)c2cc(C)on2)no1`, the figure is > 4 mM (inactive).
Turning to `COc1ccc([C@H]2Oc3c(I)c(OC)cc(OC)c3C[C@@H]2O)cc1OC`, the Kd was > 4 mM (inactive).
As for `NC(=O)COc1ccccc1O`, the figure is > 4 mM (inactive).
As for `Cc1sc2nc3n(c(=O)c2c1C)CCCS3`, the figure is > 4 mM (inactive); as for `CCN1CCc2c(sc(N)c2C#N)C1`, > 4 mM (inactive); as for `CC1(C)Cc2c(C#N)c(N)n(-c3ccccc3)c(=O)c2CO1`, > 4 mM (inactive).
As for `C=C[C@@](C)(O)CCC1C(=C)C[C@H](O)C2C(C)(C)CCCC12C` (stereo partly drawn), the figure is > 4 mM (inactive); as for `COc1c(OC)c2occc2c2oc(=O)ccc12`, > 4 mM (inactive).
As to `Nc1nc(=S)n2c(n1)oc1ccccc12`, the Kd is > 4 mM (inactive).
As for `Cc1cc(C)c(NC(=O)CN2CCC(O)CC2)c(C)c1`, the Kd is > 4 mM (inactive).
The same measure for `Fc1ccc(CN2CCCNCC2)cc1`: > 4 mM (inactive); for `CC1(C)C(=O)C=C[C@@]2(C)C1C[C@@H](O)[C@]1(C)C2CC[C@@]2(C)[C@H](c3ccoc3)OC(=O)[C@H]3O[C@]321` (stereo partly drawn): > 4 mM (inactive); for `CCCOn1nnnc1-c1ccccc1`: > 4 mM (inactive).
The same measure for `CCN1CCC(NC2CCC(O)CC2)CC1` (stereo not drawn): > 4 mM (inactive).
As for `O=C(NCN1CCOCC1)c1cnccn1`, the figure is > 4 mM (inactive).
Consider `Nc1cc(C(=O)O)ccc1N1CCCCCC1`, for which the Kd is > 4 mM (inactive).
As for `Cc1cc(C)nc(/N=C(\N)N2CCc3ccccc32)n1`, the figure is > 4 mM (inactive); as for `CC(C)CCCC(C)[C@H]1CCC2C3CC[C@H]4CC(=O)CC[C@]4(C)C3CC[C@@]21C` (stereo partly drawn), > 4 mM (inactive); as for `COc1ccc2c(c1)OCc1c-2oc2cc(OC)ccc12`, > 4 mM (inactive).
As for `O=C1C2C3C=CC(O3)C2C(=O)N1c1ccccc1` (stereo not drawn), the figure is > 4 mM (inactive); as for `CCC(C)C(=O)OC1[C@@H]2CC3=C4CC(=O)O[C@@H](c5ccoc5)[C@]4(C)CCC3C(C)(C2=O)[C@@H](CC(=O)OC)C1(C)C` (stereo partly drawn), > 4 mM (inactive); as for `OCC1Cc2ccccc2N1` (stereo not drawn), > 4 mM (inactive).
As for `c1ccc2[nH]c(NCCN3CCOCC3)nc2c1`, the figure is > 4 mM (inactive); as for `Nc1ccc(N2CCOCC2)cc1`, > 4 mM (inactive); as for `CCC1=Nc2ccccc2-c2nnc(SC)nc2O1`, > 4 mM (inactive).
Consider `CCC(=O)Nc1cc(C(C)C)c(O)cc1C`, for which the Kd is > 4 mM (inactive).
As for `Cc1cc(=O)n2ccc(CN3CCOCC3)c(O)c2n1`, the figure is > 4 mM (inactive); as for `CC(=O)Nc1c(C)n(C)n(-c2ccccc2)c1=O`, > 4 mM (inactive).
As for `Cc1cc(C)cc(NS(=O)(=O)N2CCOCC2)c1`, the entry is “inactive”; as for `Cc1nn2c(-c3ccco3)nnc2c2ccccc12`, > 4 mM (inactive); as for `COc1cc(S(=O)(=O)Nc2cccnc2)ccc1F`, > 4 mM (inactive).
The same measure for `OCc1ccc2occc2c1`: > 4 mM (inactive); for `CN1C(=O)N(C)C2NC(=O)NC21` (stereo not drawn): > 4 mM (inactive).
In the case of `CC(=O)NN1C(=O)c2cccc3cccc(c23)C1=O`, the Kd was > 4 mM (inactive).
As for `c1ccc(Cc2nnc(-c3ccccc3)o2)cc1`, the figure is > 4 mM (inactive).
The same measure for `CCC(=O)Nc1ccc(-c2nn3c(C)nnc3s2)cc1`: > 4 mM (inactive).
Regarding `O=C1CCC(=O)N1c1ccc(F)cc1`, the Kd was > 4 mM (inactive).
The same measure for `Cc1occc1C(=O)Nc1nnc(C(F)(F)F)s1`: > 4 mM (inactive); for `Cn1nc(C(=O)Nc2cccnc2)cc1Cl`: > 4 mM (inactive).

By Kd is commonly meant the free concentration of one partner at which half of the binding sites on the other are occupied at equilibrium, for simple one-to-one binding.
